Laboratory results taken from PubChem BioAssay (NCI).
Values joined by “and” are separate entries in the source; they are usually repeats but may differ in a detail not shown here. Equal entries are not always repeated.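 Following 48 hours of exposure in 96-well plates, responses at five concentrations were used to interpolate endpoints linearly. GI50 is the concentration that inhibits growth by half. TGI marks complete inhibition of growth.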

How the values were obtained:
Assay in all cases: NCI-60 cell line screen, 48 h
KM12 colon = tested on: KM12 colon
SF-268 CNS = tested on: SF-268 CNS
SK-MEL-28 melanoma = tested on: SK-MEL-28 melanoma
MDA-MB-468 breast = tested on: MDA-MB-468 breast
SNB-19 CNS = tested on: SNB-19 CNS
OVCAR-5 ovarian = tested on: OVCAR-5 ovarian
SF-539 CNS = tested on: SF-539 CNS
HS 578T breast = tested on: HS 578T breast
RPMI-8226 leukemia = tested on: RPMI-8226 leukemia
EKVX NSCLC = tested on: EKVX NSCLC
MCF7 breast = tested on: MCF7 breast
K-562 leukemia = tested on: K-562 leukemia
A498 renal = tested on: A498 renal
M14 melanoma = tested on: M14 melanoma
SF-295 CNS = tested on: SF-295 CNS
SNB-75 CNS = tested on: SNB-75 CNS
TK-10 renal = tested on: TK-10 renal
NCI-H226 lung = tested on: NCI-H226 lung
OVCAR-8 ovarian = tested on: OVCAR-8 ovarian
U251 CNS = tested on: U251 CNS
PC-3 prostate = tested on: PC-3 prostate
UACC-257 melanoma = tested on: UACC-257 melanoma
T-47D breast = tested on: T-47D breast
MDA-MB-231 breast = tested on: MDA-MB-231 breast
SK-MEL-2 melanoma = tested on: SK-MEL-2 melanoma
HOP-92 NSCLC = tested on: HOP-92 NSCLC
MALME-3M melanoma = tested on: MALME-3M melanoma
RXF 393 renal = tested on: RXF 393 renal
NCI-H23 lung = tested on: NCI-H23 lung
NCI-H460 lung = tested on: NCI-H460 lung
SK-MEL-5 melanoma = tested on: SK-MEL-5 melanoma
UACC-62 melanoma = tested on: UACC-62 melanoma
SR leukemia = tested on: SR leukemia
HOP-62 NSCLC = tested on: HOP-62 NSCLC
LOX IMVI melanoma = tested on: LOX IMVI melanoma
SK-OV-3 ovarian = tested on: SK-OV-3 ovarian
HCT-15 colon = tested on: HCT-15 colon
BT-549 breast = tested on: BT-549 breast
CCRF-CEM leukemia = tested on: CCRF-CEM leukemia
ACHN renal = tested on: ACHN renal
SN12C renal = tested on: SN12C renal
HCT-116 colon = tested on: HCT-116 colon
HCC-2998 colon = tested on: HCC-2998 colon
HL-60(TB) leukemia = tested on: HL-60(TB) leukemia
DU-145 prostate = tested on: DU-145 prostate
786-0 renal = tested on: 786-0 renal
OVCAR-4 ovarian = tested on: OVCAR-4 ovarian
A549 NSCLC = tested on: A549 NSCLC
COLO 205 colon = tested on: COLO 205 colon
UO-31 renal = tested on: UO-31 renal
MOLT-4 leukemia = tested on: MOLT-4 leukemia
IGROV1 ovarian = tested on: IGROV1 ovarian
MDA-MB-435 = tested on: MDA-MB-435
NCI/ADR-RES ovarian = tested on: NCI/ADR-RES ovarian
NCI-H522 lung = tested on: NCI-H522 lung
OVCAR-3 ovarian = tested on: OVCAR-3 ovarian
HT29 colon = tested on: HT29 colon

## CSc1ccc(C(=O)Nc2ccc3nn(/C(C#N)=C/c4ccccn4)nc3c2)cc1
KM12 colon
  GI50: 1060 nM
  TGI: 3080 nM
SF-268 CNS
  GI50: 1780 nM
  TGI: 8870 nM
SK-MEL-28 melanoma
  GI50: 885 nM
  TGI: 1820 nM
MDA-MB-468 breast
  GI50: 558 nM
  TGI: 1360 nM
SNB-19 CNS
  GI50: 2140 nM
  TGI: 8790 nM
OVCAR-5 ovarian
  GI50: 990 nM
  TGI: 2510 nM
SF-539 CNS
  GI50: 811 nM
  TGI: 1530 nM
HS 578T breast
  GI50: 1700 nM
  TGI: 12600 nM
RPMI-8226 leukemia
  GI50: 901 nM
  TGI: 2970 nM
EKVX NSCLC
  GI50: 1260 nM
  TGI: 5950 nM
MCF7 breast
  GI50: 687 nM
  TGI: 1650 nM
K-562 leukemia
  GI50: 424 nM
  TGI: 3300 nM
A498 renal
  GI50: 5570 nM
  TGI: 11900 nM
M14 melanoma
  GI50: 866 nM
  TGI: 1880 nM
SF-295 CNS
  GI50: 2360 nM
  TGI: 9150 nM
SNB-75 CNS
  GI50: 948 nM
  TGI: 8250 nM
TK-10 renal
  GI50: 935 nM
  TGI: 2200 nM
NCI-H226 lung
  GI50: 1640 nM
  TGI: 9690 nM
OVCAR-8 ovarian
  GI50: 1480 nM
  TGI: 14200 nM
U251 CNS
  GI50: 903 nM
  TGI: 1890 nM
PC-3 prostate
  GI50: 1510 nM
  TGI: 6330 nM
UACC-257 melanoma
  GI50: 1280 nM
  TGI: 4190 nM
T-47D breast
  GI50: 1270 nM
  TGI: 10900 nM
MDA-MB-231 breast
  GI50: 842 nM
  TGI: 1740 nM
SK-MEL-2 melanoma
  GI50: 896 nM
  TGI: 1900 nM
HOP-92 NSCLC
  GI50: 677 nM
  TGI: 1930 nM
MALME-3M melanoma
  GI50: 797 nM
  TGI: 1960 nM
RXF 393 renal
  GI50: 699 nM
  TGI: 1360 nM
NCI-H23 lung
  GI50: 769 nM
  TGI: 1540 nM
NCI-H460 lung
  GI50: 934 nM
  TGI: 2110 nM
SK-MEL-5 melanoma
  GI50: 1390 nM
  TGI: 4700 nM
UACC-62 melanoma
  GI50: 819 nM
  TGI: 1720 nM
SR leukemia
  GI50: 327 nM
  TGI: 4180 nM
HOP-62 NSCLC
  GI50: 1750 nM
  TGI: 6640 nM
LOX IMVI melanoma
  GI50: 664 nM
  TGI: 1340 nM
SK-OV-3 ovarian
  GI50: 5180 nM
  TGI: 17500 nM
HCT-15 colon
  GI50: 511 nM
  TGI: 1380 nM
BT-549 breast
  GI50: 920 nM
  TGI: 1950 nM
CCRF-CEM leukemia
  GI50: 619 nM
  TGI: 50000 nM
ACHN renal
  GI50: 808 nM
  TGI: 1600 nM
SN12C renal
  GI50: 1140 nM
  TGI: 2840 nM
HCT-116 colon
  GI50: 822 nM
  TGI: 1640 nM
HCC-2998 colon
  GI50: 854 nM
  TGI: 1580 nM
HL-60(TB) leukemia
  GI50: 544 nM
  TGI: 2190 nM
DU-145 prostate
  GI50: 1250 nM
  TGI: 3850 nM
786-0 renal
  GI50: 776 nM
  TGI: 1500 nM
OVCAR-4 ovarian
  GI50: 1740 nM
  TGI: 9640 nM
A549 NSCLC
  GI50: 2200 nM
  TGI: 11000 nM
COLO 205 colon
  GI50: 834 nM
  TGI: 1590 nM
UO-31 renal
  GI50: 712 nM
  TGI: 1390 nM
MOLT-4 leukemia
  GI50: 658 nM
  TGI: 2270 nM
IGROV1 ovarian
  GI50: 902 nM
  TGI: 1980 nM
MDA-MB-435
  GI50: 759 nM
  TGI: 2560 nM

## CN1CCN(C(=O)Oc2cc3c(c4ccccc24)[C@H](CCl)CN3C(=O)c2cc3cc(OCCCN4CCC4)ccc3[nH]2)[C@H]2CSSC[C@H]21
KM12 colon
  GI50: 46.2 nM and 90.4 nM
SF-268 CNS
  GI50: 19.8 nM and 20.1 nM
  TGI: 84.4 nM and 173 nM
SK-MEL-28 melanoma
  GI50: 18.7 nM
  TGI: 40 nM
MDA-MB-468 breast
  GI50: 5.3 nM
  TGI: 19.7 nM
SNB-19 CNS
  GI50: 23.2 nM and 17.9 nM
  TGI: 2460 nM and 314 nM
OVCAR-5 ovarian
  GI50: 29 nM and 22.7 nM
  TGI: 360 nM and 86.1 nM
SF-539 CNS
  GI50: 16.8 nM and 22.4 nM
  TGI: 40.6 nM and 55.4 nM
HS 578T breast
  GI50: 100 nM and 141 nM
  TGI: 591 nM and 810 nM
RPMI-8226 leukemia
  GI50: 36 nM and 35.1 nM
EKVX NSCLC
  GI50: 20.4 nM and 27.3 nM
  TGI: 59.6 nM and 70.7 nM
MCF7 breast
  GI50: 1.53 nM
  TGI: 1530 nM
K-562 leukemia
  GI50: 24.4 nM and 17.2 nM
  TGI: > 15300 nM
M14 melanoma
  GI50: 15.9 nM and 14.2 nM
  TGI: 70 nM and 46.2 nM
SF-295 CNS
  GI50: 10.6 nM and 2.14 nM
  TGI: 52 nM and 5.86 nM
SNB-75 CNS
  GI50: 26 nM
  TGI: 137 nM
NCI/ADR-RES ovarian
  GI50: 13.5 nM
  TGI: 53.6 nM
NCI-H226 lung
  GI50: 31.8 nM
  TGI: 1150 nM
OVCAR-8 ovarian
  GI50: 15.3 nM and 12.1 nM
U251 CNS
  GI50: 18 nM and 3.56 nM
  TGI: 2300 nM
PC-3 prostate
  GI50: 18 nM and 34 nM
  TGI: > 15300 nM
NCI-H522 lung
  GI50: 30.6 nM and 28.3 nM
  TGI: 154 nM and 75.8 nM
UACC-257 melanoma
  GI50: 27.3 nM and 34.4 nM
  TGI: 135 nM and 86.5 nM
T-47D breast
  GI50: 28.6 nM
  TGI: 598 nM
MDA-MB-231 breast
  GI50: 32.1 nM and 37.8 nM
  TGI: 92.9 nM and 83.7 nM
SK-MEL-2 melanoma
  GI50: 28.5 nM and 31.3 nM
  TGI: 62.6 nM and 53.8 nM
HOP-92 NSCLC
  GI50: 67.1 nM
MALME-3M melanoma
  GI50: 18.2 nM and 19.3 nM
  TGI: 39.6 nM and 40.9 nM
RXF 393 renal
  GI50: 17.7 nM and 4.25 nM
  TGI: 37.9 nM and 14.5 nM
NCI-H23 lung
  GI50: 6.68 nM and 4.34 nM
  TGI: 25.1 nM and 19.6 nM
NCI-H460 lung
  GI50: 1.63 nM
  TGI: 268 nM
UACC-62 melanoma
  GI50: 10.5 nM and 4.24 nM
  TGI: 26.4 nM and 21.3 nM
SR leukemia
  GI50: 4.72 nM
HOP-62 NSCLC
  GI50: 9.09 nM and 9.6 nM
  TGI: 33.2 nM and 45.3 nM
OVCAR-3 ovarian
  GI50: 28.1 nM and 50.5 nM
  TGI: 88.3 nM and 292 nM
LOX IMVI melanoma
  GI50: 3.15 nM
  TGI: 24.8 nM
SK-OV-3 ovarian
  GI50: 23.5 nM and 29.9 nM
  TGI: 59.6 nM and 128 nM
HCT-15 colon
  GI50: 13.1 nM and 11 nM
  TGI: 40.7 nM and 50.6 nM
BT-549 breast
  GI50: 19.2 nM and 54 nM
  TGI: 74.1 nM and 348 nM
CCRF-CEM leukemia
  GI50: 42 nM and 18.4 nM
ACHN renal
  GI50: 2.5 nM
  TGI: 8.71 nM
SN12C renal
  GI50: 19.4 nM and 11.6 nM
  TGI: 459 nM and 222 nM
HCT-116 colon
  GI50: 8.63 nM and 45.7 nM
  TGI: > 15300 nM
HCC-2998 colon
  GI50: 16 nM and 22 nM
  TGI: 47.3 nM and 52.7 nM
HL-60(TB) leukemia
  GI50: 49.8 nM and 28.5 nM
  TGI: 368 nM
DU-145 prostate
  GI50: 4.29 nM and 5.32 nM
OVCAR-4 ovarian
  GI50: 43.3 nM and 73.5 nM
  TGI: 553 nM and 446 nM
A549 NSCLC
  GI50: 4.96 nM
  TGI: > 15300 nM
HT29 colon
  GI50: 19.7 nM
COLO 205 colon
  GI50: 25.5 nM and 21.7 nM
  TGI: 106 nM and 50.4 nM
MOLT-4 leukemia
  GI50: 23.5 nM and 14.2 nM
  TGI: 324 nM
MDA-MB-435
  GI50: 20.3 nM and 25.1 nM
  TGI: 47.9 nM and 55.4 nM
